Values joined by “and” are separate entries in the source; they are usually repeats but may differ in a detail not shown here. Equal values may be shown once.
System: 556581-035-R-J1-PDC spheroids with HUVEC/MSC, viability
Experiment: Anticancer human tumor 556581-035-R-J1-PDC patient-derived ovarian carcinoma cell line growth inhibition [IpAb]
Details: for viability, T/C: stronger effect = lower value
Summary of the method: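 Spheroids of 60% malignant cells, 25% HUVEC and 15% MSC were exposed to targeted agents combined with ipatasertib or abemaciclib. Doses started at or near clinical Cmax (10 microM when unknown) and fell in half-log steps.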

[1] = curve of first compound, second compound 0.01 µM
[2] = curve of first compound, second compound 0.0316 µM
[3] = curve of first compound, second compound 0.1 µM
[4] = curve of first compound, second compound 0.316 µM
[5] = curve of first compound, second compound 1 µM
[6] = second compound 0.01 µM, first compound 0.0316 µM
[7] = second compound 0.01 µM, first compound 0.1 µM
[8] = second compound 0.01 µM, first compound 0.316 µM
[9] = second compound 0.01 µM, first compound 1 µM
[10] = second compound 0.01 µM, first compound 3.16 µM
[11] = second compound 0.01 µM, first compound 10 µM
[12] = second compound 0.0316 µM, first compound 0.0316 µM
[13] = second compound 0.0316 µM, first compound 0.1 µM
[14] = second compound 0.0316 µM, first compound 0.316 µM
[15] = second compound 0.0316 µM, first compound 1 µM
[16] = second compound 0.0316 µM, first compound 3.16 µM
[17] = second compound 0.0316 µM, first compound 10 µM
[18] = second compound 0.1 µM, first compound 0.0316 µM
[19] = second compound 0.1 µM, first compound 0.1 µM
[20] = second compound 0.1 µM, first compound 0.316 µM
[21] = second compound 0.1 µM, first compound 1 µM
[22] = second compound 0.1 µM, first compound 3.16 µM
[23] = second compound 0.1 µM, first compound 10 µM
[24] = second compound 0.316 µM, first compound 0.0316 µM
[25] = second compound 0.316 µM, first compound 0.1 µM
[26] = second compound 0.316 µM, first compound 0.316 µM
[27] = second compound 0.316 µM, first compound 1 µM
[28] = second compound 0.316 µM, first compound 3.16 µM
[29] = second compound 0.316 µM, first compound 10 µM
[30] = second compound 1 µM, first compound 0.0316 µM
[31] = second compound 1 µM, first compound 0.1 µM
[32] = second compound 1 µM, first compound 0.316 µM
[33] = second compound 1 µM, first compound 1 µM
[34] = second compound 1 µM, first compound 3.16 µM
[35] = second compound 1 µM, first compound 10 µM
[36] = curve of first compound, second compound 3.16 µM
[37] = curve of first compound, second compound 10 µM
[38] = second compound 3.16 µM, first compound 0.0316 µM
[39] = second compound 3.16 µM, first compound 0.1 µM
[40] = second compound 3.16 µM, first compound 0.316 µM
[41] = second compound 3.16 µM, first compound 1 µM
[42] = second compound 3.16 µM, first compound 3.16 µM
[43] = second compound 3.16 µM, first compound 10 µM
[44] = second compound 10 µM, first compound 0.0316 µM
[45] = second compound 10 µM, first compound 0.1 µM
[46] = second compound 10 µM, first compound 0.316 µM
[47] = second compound 10 µM, first compound 1 µM
[48] = second compound 10 µM, first compound 3.16 µM
[49] = second compound 10 µM, first compound 10 µM
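Note: spheroids exposed to compounds for 7 days before readout.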

Cn1nccc1Nc1nccc(-c2ccn(C(CO)c3ccc(Cl)c(F)c3)c(=O)c2)n1 (stereo unspecified) + CCN1CCN(Cc2ccc(Nc3ncc(F)c(-c4cc(F)c5nc(C)n(C(C)C)c5c4)n3)nc2)CC1
IC50 [1]: 9.08 µM
IC50 [2]: 6.09 µM
IC50 [3]: 5.33 µM
IC50 [4]: 7.52 µM
IC50 [5]: 5.34 µM
viability, T/C [6]: 110%
viability, T/C [7]: 145%
viability, T/C [8]: 127%
viability, T/C [9]: 109%
viability, T/C [10]: 95.4%
viability, T/C [11]: 45.8%
viability, T/C [12]: 119%
viability, T/C [13]: 140%
viability, T/C [14]: 128%
viability, T/C [15]: 98.5%
viability, T/C [16]: 72%
viability, T/C [17]: 34.8%
viability, T/C [18]: 107%
viability, T/C [19]: 123%
viability, T/C [20]: 134%
viability, T/C [21]: 119%
viability, T/C [22]: 63.4%
viability, T/C [23]: 33.8%
viability, T/C [24]: 92.2%
viability, T/C [25]: 103%
viability, T/C [26]: 144%
viability, T/C [27]: 101%
viability, T/C [28]: 87.3%
viability, T/C [29]: 37.9%
viability, T/C [30]: 78%
viability, T/C [31]: 85.5%
viability, T/C [32]: 128%
viability, T/C [33]: 72.3%
viability, T/C [34]: 71.5%
viability, T/C [35]: 27.2%

Cn1ncc(Cl)c1-c1cc(C(=O)NC(CN)Cc2cccc(F)c2)sc1Cl (stereo unspecified) + CC(C)NCC(C(=O)N1CCN(c2ncnc3c2C(C)CC3O)CC1)c1ccc(Cl)cc1
IC50 [3]: 1.86 µM
IC50 [4]: 2.39 µM
IC50 [5]: 1.9 µM
IC50 [36]: 1.31 µM
IC50 [37]: 1.19 µM
viability, T/C [18]: 84%
viability, T/C [19]: 81.2%
viability, T/C [20]: 68.5%
viability, T/C [21]: 63.4%
viability, T/C [22]: 40.9%
viability, T/C [23]: 0.2%
viability, T/C [24]: 37.8%
viability, T/C [25]: 79.6%
viability, T/C [26]: 67.2%
viability, T/C [27]: 56.8%
viability, T/C [28]: 47.3%
viability, T/C [29]: 0.21%
viability, T/C [30]: 70.2%
viability, T/C [31]: 67.2%
viability, T/C [32]: 67.6%
viability, T/C [33]: 55.3%
viability, T/C [34]: 45.1%
viability, T/C [35]: 0.18%
viability, T/C [38]: 55.3%
viability, T/C [39]: 74.6%
viability, T/C [40]: 54.4%
viability, T/C [41]: 54.2%
viability, T/C [42]: 37.8%
viability, T/C [43]: 1.42%
viability, T/C [44]: 51.8%
viability, T/C [45]: 55.7%
viability, T/C [46]: 51.5%
viability, T/C [47]: 53.4%
viability, T/C [48]: 32.5%
viability, T/C [49]: 4.77%

CCCS(=O)(=O)Nc1ccc(F)c(C(=O)c2c[nH]c3ncc(-c4ccc(Cl)cc4)cc23)c1F + CCN1CCN(Cc2ccc(Nc3ncc(F)c(-c4cc(F)c5nc(C)n(C(C)C)c5c4)n3)nc2)CC1
IC50 [1]: > 10 µM
IC50 [2]: > 10 µM
IC50 [3]: > 10 µM
IC50 [4]: > 10 µM
IC50 [5]: > 10 µM
viability, T/C [6]: 114%
viability, T/C [7]: 106%
viability, T/C [8]: 123%
viability, T/C [9]: 116%
viability, T/C [10]: 129%
viability, T/C [11]: 71.9%
viability, T/C [12]: 99%
viability, T/C [13]: 97.2%
viability, T/C [14]: 109%
viability, T/C [15]: 104%
viability, T/C [16]: 110%
viability, T/C [17]: 60.9%
viability, T/C [18]: 128%
viability, T/C [19]: 113%
viability, T/C [20]: 123%
viability, T/C [21]: 104%
viability, T/C [22]: 100%
viability, T/C [23]: 61%
viability, T/C [24]: 105%
viability, T/C [25]: 98.4%
viability, T/C [26]: 99.1%
viability, T/C [27]: 93.9%
viability, T/C [28]: 77.6%
viability, T/C [29]: 57.6%
viability, T/C [30]: 67.7%
viability, T/C [31]: 54.9%
viability, T/C [32]: 73.1%
viability, T/C [33]: 61%
viability, T/C [34]: 57.2%
viability, T/C [35]: 59.8%

CC(C)(C)c1cnc(CSc2cnc(NC(=O)C3CCNCC3)s2)o1
viability, T/C (compound 0.00949 µM): 104% and 105%
viability, T/C (compound 0.03 µM): 116% and 106%
viability, T/C (compound 0.0949 µM): 62.5% and 81%
viability, T/C (compound 0.3 µM): 2.65% and 4.27%
viability, T/C (compound 0.949 µM): 3.19% and 3.08%
viability, T/C (compound 3 µM): 4.63% and 2.13%
IC50 (curve of compound): 0.121 µM and 0.151 µM

C=CCn1c(=O)c2cnc(Nc3ccc(N4CCN(C)CC4)cc3)nc2n1-c1cccc(C(C)(C)O)n1 + CC(C)NCC(C(=O)N1CCN(c2ncnc3c2C(C)CC3O)CC1)c1ccc(Cl)cc1
IC50 [3]: 0.217 µM
IC50 [4]: 0.186 µM
IC50 [5]: 0.145 µM
IC50 [36]: 0.071 µM
IC50 [37]: < 0.0316 µM
viability, T/C [18]: 106%
viability, T/C [19]: 82.7%
viability, T/C [20]: 27.3%
viability, T/C [21]: 31.7%
viability, T/C [22]: 42.9%
viability, T/C [23]: 34.8%
viability, T/C [24]: 94.4%
viability, T/C [25]: 75.8%
viability, T/C [26]: 22.9%
viability, T/C [27]: 26.4%
viability, T/C [28]: 35.1%
viability, T/C [29]: 27.5%
viability, T/C [30]: 64.2%
viability, T/C [31]: 62.7%
viability, T/C [32]: 18.9%
viability, T/C [33]: 22%
viability, T/C [34]: 27.4%
viability, T/C [35]: 26.4%
viability, T/C [38]: 60.8%
viability, T/C [39]: 45.5%
viability, T/C [40]: 17.2%
viability, T/C [41]: 13.2%
viability, T/C [42]: 23.2%
viability, T/C [43]: 22.8%
viability, T/C [44]: 43.3%
viability, T/C [45]: 35.9%
viability, T/C [46]: 14.8%
viability, T/C [47]: 11.6%
viability, T/C [48]: 18.2%
viability, T/C [49]: 19.7%

CCCS(=O)(=O)Nc1ccc(F)c(C(=O)c2c[nH]c3ncc(-c4ccc(Cl)cc4)cc23)c1F
viability, T/C (compound 0.0316 µM): 93.4% and 104%
viability, T/C (compound 0.1 µM): 103% and 99.8%
viability, T/C (compound 0.316 µM): 105% and 108%
viability, T/C (compound 1 µM): 92.9% and 98.8%
viability, T/C (compound 3.16 µM): 110% and 104%
viability, T/C (compound 10 µM): 75.7% and 78.5%
IC50 (curve of compound): > 10 µM

Cn1ncnc1[C@H]1c2n[nH]c(=O)c3cc(F)cc(c23)N[C@@H]1c1ccc(F)cc1
viability, T/C (compound 0.000316 µM): 120% and 97.9%
viability, T/C (compound 0.001 µM): 106% and 94.6%
viability, T/C (compound 0.00316 µM): 91.1% and 85.3%
viability, T/C (compound 0.01 µM): 76.8% and 86.8%
viability, T/C (compound 0.0316 µM): 73.8% and 78.4%
viability, T/C (compound 0.1 µM): 68% and 62.8%
IC50 (curve of compound): > 0.1 µM

— PubChem BioAssay AID2060338 (Molecular Pharmacology Branch, DTP, NCI, 2025)
